US20090192187A1, “DRY POWDER FORMULATION COMPRISING AN ANTIC[…]” (Chiesi Farmaceutici S.p.A., priority 2008, published 2009)
Structures can show the parent of a compound that is named as a salt.

Legend:
muscarinic receptors = test: Receptor potency and duration of action compared with tiotropium bromide
M2 muscarinic receptors = target: T1, M2 muscarinic receptors (Homo sapiens, UniProt P08172); test: Duration of action / dissociation kinetics at M2 receptors; details: compared with tiotropium bromide
T1 sequence (P08172 1-466): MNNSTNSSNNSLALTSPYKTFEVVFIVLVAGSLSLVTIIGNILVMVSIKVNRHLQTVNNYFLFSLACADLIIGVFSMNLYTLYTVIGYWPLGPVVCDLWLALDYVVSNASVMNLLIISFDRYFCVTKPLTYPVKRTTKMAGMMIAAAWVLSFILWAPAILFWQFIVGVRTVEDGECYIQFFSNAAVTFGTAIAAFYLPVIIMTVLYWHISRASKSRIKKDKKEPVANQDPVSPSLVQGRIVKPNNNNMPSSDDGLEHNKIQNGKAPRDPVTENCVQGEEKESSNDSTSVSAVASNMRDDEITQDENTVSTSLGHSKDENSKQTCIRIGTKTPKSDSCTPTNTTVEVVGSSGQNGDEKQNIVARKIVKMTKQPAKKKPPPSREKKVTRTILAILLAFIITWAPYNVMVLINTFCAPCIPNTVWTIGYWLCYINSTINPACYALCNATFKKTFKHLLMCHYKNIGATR

[1] = test system: Ach-induced increase in Penh (airway reactivity); test: Bronchodilation activity: barometric plethysmography, acetylcholine challenge after nebulised compound; assay type: in vivo, guinea pig; details: for bronchoprotective effect: twenty-four hours
Experimental: Airway reactivity is measured using barometric plethysmography (Buxco, USA). Male guinea pigs (500-600 g) are individually placed in plexiglass chambers. After an acclimatisation period, animals are exposed to nebulised saline for 1 minute to obtain airway baseline reading. This is followed by a 1 minute challenge with nebulised acetylcholine (Ach)-2.5 mg/mL. After 60 minutes, 5 minute nebulisation of vehicle or the compound I′ in the range 2.5-250 μM are applied, and Ach challenge is then repeated after 2, 5, 24, 48 and 72 hours (h). Recording of pressure fluctuations in the chambers are taken for 5 minutes after each nebulisation and analysed to calculate Enhanced Pause (Penh). Airway reactivity is expressed as percentage increase in Penh compared with Penh values from the nebulisation of vehicle.

[2] = Estimation of lung levels after nebulisation; assay type: in vivo, guinea pig; details: nebulisation with submaximal bronchodilator activity, 2 hours after treatment

Row | Compound | duration of action (muscarinic receptors) | receptor potency (muscarinic receptors) | duration of action on the M2 receptors (M2 muscarinic receptors) | bronchoprotective effect ([1]; 25 μM inhaled) [%] | inhibition ([1]; 50 μM inhaled, 48 hours) [%] | bronchoprotective effect ([1]; 50 μM inhaled) [%] | maximal effect, inhibition of Ach-induced increase in Penh ([1]; 50 μM nebulised, two hours after end of nebulisation) | effect (inhibition of Ach-induced increase in Penh) ([1]; 250 μM inhaled, 48 hours) [%] | residual activity ([1]; 250 μM inhaled, 72 hours) [%] | time-course of the effect (duration of action) ([1]; increasing dose) | duration of effect ([1]; inhalation of lower concentrations (below 25 μM)) [h] | dose dependence of inhibition of Ach-induced increase in Penh ([1]; two hours after end of nebulisation, 2.5-250 μM) | retained dose in the target organ (lung) [2]
1 | O=C(C[N+]12CCC(CC1)C(OC(=O)N(Cc1cc(F)c(F)c(F)c1)c1cccc(F)c1)C2)c1cccs1 (stereo not shown) [chloride salt of compound 1, 3-[[[(3-fluorophenyl)[(3,4,5-trifluorophenyl)methyl]amino]carbonyl]oxy]-1-[2-oxo-2-(2-thienyl)ethyl]-1-azoniabicyclo[2.2.2]octane] | equieffective to tiotropium bromide | equieffective to tiotropium bromide | significantly short-acting |  |  |  |  |  |  |  |  |  | 
2 | 3-[[[(3-fluorophenyl)[(3,4,5-trifluoro phenyl)methyl]amino]carbonyl]oxy]-1-[2-oxo-2-(2-thienyl)ethyl]-1-azoniabicyclo[2.2.2]octane [compound 1′] |  |  |  | 63.7±15.1 | 49.2±23.2 | 87.1±8.7 | 99.6±0.4 | 83.0±16.1 | 34.8±20.9 | increasing duration of action with increasing dose | ≤ 5 | dose-dependently inhibited | about 50 μg/kg
